Measurements reported in PMC11219871, “Epigenetic-based differentiation therapy for Acute Myeloid Leukemia” (Nature Communications, 2024).

Key:
Assay in all cases: Epigenetic panel (BPS Bioscience)
Type in all cases: binding
TAF1L (BD1+BD2) = target: T1, TAF1L (BD1+BD2) (Homo sapiens, UniProt Q8IZX4)
T1 construct: purchased BPS Bioscience; Eurofins (HDAC4, 5, 7-11)
Text: (§1) The selectivity of CM-444 and CM-1758 against other epigenetic targets, including histone demethylase (JMJD2A, JMJD2B, JMJD2C, JMJD2D, JMJD2E, JMJD3, JMJD1A, LSD1, Jarid1A, Jarid1B, Jarid1C, FBXL10, FBXL11, JHDM1D, JMJD1B, PHF8, LSD2 and UTX); histone acetyltransferases (GCN5, P300); histone methyltransferases (G9a, GLP, MLL1, SET7/9, SUV39H1, SUV39H2, PRMT1, PRMT3, PRMT4, PRMT5, PRMT6, PRMT8, PRMT9, NSD1, NSD2, EZH1, EZH2, SETDB1, SETD2, SET8, SUV4-20H1, SMYD2, SMYD3, DOT1L, EZH2 (A677G), EZH2 (A677G), EZH2 (A738T), EZH2 (Y641S), EZH2 (P132S), EZH2 (Y641C), EZH2 (Y641F), EZH2 (Y641H), EZH2 (Y641N)); bromodomains (ATAD2B, ATAD2A, BRD1, BRD9, BPTF/FALZ, CeCR2, BRPF3, BRD3 (BD1 + BD2), BAZ2B, WDR9, TAF1 (BD2), TAF1L (BD2), TAF1L (BD1 + BD2), BRD2 (BD1), BRD2 (BD2), BRD2 (BD1 + BD2), BRD3 (BD1), BRD3 (BD2), BRD4 (BD1), BRD4 (BD2), BRD4 (BD1 + BD2), BRDT (BD1), BRDT (BD1 + BD2), CREBBP, SMARCA2A, SMARCA4/BRG1); DNA methyltranferases (DNMT1, DNMT3A/3L and DNMT3B/3L), and sirtuin histone deacetylases (SIRT1, SIRT2, SIRT3, SIRT5 and SIRT6), were determined by BPS Bioscience (http://www.bpsbioscience.com/index.ph). Binding experiments were performed in duplicate at a concentration of 10 μM.

BRD1 = target: T2, BRD1 (Homo sapiens, UniProt O95696)
T2 construct: purchased BPS Bioscience; Eurofins (HDAC4, 5, 7-11)
Text: as §1

BRD4 (BD1+BD2) = target: T3, BRD4 (BD1+BD2) (Homo sapiens, UniProt O60885)
T3 construct: purchased BPS Bioscience; Eurofins (HDAC4, 5, 7-11)
Text: as §1

CeCR2 = target: T4, CeCR2 (Homo sapiens, UniProt Q9BXF3)
T4 construct: purchased BPS Bioscience (contracted assay service)
T4 sequence (Q9BXF3 whole entry): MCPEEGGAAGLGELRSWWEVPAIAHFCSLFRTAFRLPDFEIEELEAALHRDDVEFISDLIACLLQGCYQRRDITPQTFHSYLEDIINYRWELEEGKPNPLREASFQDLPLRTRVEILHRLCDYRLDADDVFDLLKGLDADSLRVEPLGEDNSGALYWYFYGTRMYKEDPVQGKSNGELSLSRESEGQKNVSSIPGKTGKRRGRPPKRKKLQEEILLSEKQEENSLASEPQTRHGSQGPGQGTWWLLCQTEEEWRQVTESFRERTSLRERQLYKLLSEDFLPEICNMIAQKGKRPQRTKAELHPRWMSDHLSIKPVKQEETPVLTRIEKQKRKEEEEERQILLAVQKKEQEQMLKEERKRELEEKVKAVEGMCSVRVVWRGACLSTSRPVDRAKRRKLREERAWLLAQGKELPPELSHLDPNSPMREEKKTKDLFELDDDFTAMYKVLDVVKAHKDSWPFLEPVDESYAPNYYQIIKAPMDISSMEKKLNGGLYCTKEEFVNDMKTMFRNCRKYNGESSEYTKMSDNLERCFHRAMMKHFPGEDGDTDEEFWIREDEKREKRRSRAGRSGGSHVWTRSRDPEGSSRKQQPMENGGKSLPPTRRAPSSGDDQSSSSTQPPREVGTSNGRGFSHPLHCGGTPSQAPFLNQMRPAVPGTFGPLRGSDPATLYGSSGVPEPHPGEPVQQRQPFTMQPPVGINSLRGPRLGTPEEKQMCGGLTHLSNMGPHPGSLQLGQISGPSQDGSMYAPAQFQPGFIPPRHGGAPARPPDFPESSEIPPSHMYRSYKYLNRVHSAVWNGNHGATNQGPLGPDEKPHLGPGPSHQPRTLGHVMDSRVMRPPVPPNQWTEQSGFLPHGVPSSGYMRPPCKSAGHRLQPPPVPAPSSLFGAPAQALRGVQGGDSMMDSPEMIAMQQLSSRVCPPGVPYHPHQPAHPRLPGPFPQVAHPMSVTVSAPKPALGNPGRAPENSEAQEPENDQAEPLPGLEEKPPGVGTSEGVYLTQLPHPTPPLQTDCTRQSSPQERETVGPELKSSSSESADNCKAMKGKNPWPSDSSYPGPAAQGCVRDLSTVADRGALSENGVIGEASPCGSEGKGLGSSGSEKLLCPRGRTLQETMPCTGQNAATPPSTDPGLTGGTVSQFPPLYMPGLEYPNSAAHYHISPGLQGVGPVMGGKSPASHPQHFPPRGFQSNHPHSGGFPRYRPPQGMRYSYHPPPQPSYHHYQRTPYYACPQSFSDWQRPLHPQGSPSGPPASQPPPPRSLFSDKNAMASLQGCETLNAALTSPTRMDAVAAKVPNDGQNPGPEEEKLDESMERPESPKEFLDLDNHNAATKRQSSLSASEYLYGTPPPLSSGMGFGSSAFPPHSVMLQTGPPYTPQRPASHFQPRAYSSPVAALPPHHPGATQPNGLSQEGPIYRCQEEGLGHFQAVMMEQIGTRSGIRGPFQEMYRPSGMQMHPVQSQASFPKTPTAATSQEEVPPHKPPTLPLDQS
Text: as §1

BRD2 (BD1+BD2) = target: T5, BRD2 (BD1+BD2) (Homo sapiens, UniProt P25440)
T5 construct: purchased BPS Bioscience; Eurofins (HDAC4, 5, 7-11)
T5 sequence (P25440 65-459 limits assumed): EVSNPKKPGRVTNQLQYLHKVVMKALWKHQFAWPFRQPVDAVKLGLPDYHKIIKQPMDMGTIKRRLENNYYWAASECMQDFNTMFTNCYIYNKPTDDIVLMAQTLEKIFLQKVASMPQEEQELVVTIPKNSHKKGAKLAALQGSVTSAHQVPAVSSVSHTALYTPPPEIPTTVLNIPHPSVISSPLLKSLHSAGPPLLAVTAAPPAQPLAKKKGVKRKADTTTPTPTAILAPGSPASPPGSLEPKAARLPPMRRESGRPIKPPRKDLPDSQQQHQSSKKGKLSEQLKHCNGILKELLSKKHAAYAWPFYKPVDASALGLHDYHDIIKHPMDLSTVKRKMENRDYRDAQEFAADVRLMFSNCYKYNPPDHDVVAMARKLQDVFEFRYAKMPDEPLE
Text: as §1

ATAD2A = target: T6, ATAD2A (Homo sapiens, UniProt Q6PL18)
T6 construct: purchased BPS Bioscience; Eurofins (HDAC4, 5, 7-11)
Text: as §1

BRDT (BD1+BD2) = target: T7, BRDT (BD1+BD2) (Homo sapiens, UniProt Q58F21)
T7 construct: purchased BPS Bioscience; Eurofins (HDAC4, 5, 7-11)
Text: as §1

BRD2 (BD1) = target: T8, BRD2 (BD1) (Homo sapiens, UniProt P25440)
T8 construct: BRD2 (BD1); purchased BPS Bioscience (contracted assay service)
T8 sequence (P25440 74-180 limits assumed): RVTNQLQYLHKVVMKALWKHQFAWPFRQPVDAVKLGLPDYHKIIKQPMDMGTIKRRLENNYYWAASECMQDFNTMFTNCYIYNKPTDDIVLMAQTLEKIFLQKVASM
Text: as §1

WDR9 = target: T9, WDR9 (Homo sapiens, UniProt Q9NSI6)
T9 construct: purchased BPS Bioscience (contracted assay service)
T9 sequence (Q9NSI6 whole entry): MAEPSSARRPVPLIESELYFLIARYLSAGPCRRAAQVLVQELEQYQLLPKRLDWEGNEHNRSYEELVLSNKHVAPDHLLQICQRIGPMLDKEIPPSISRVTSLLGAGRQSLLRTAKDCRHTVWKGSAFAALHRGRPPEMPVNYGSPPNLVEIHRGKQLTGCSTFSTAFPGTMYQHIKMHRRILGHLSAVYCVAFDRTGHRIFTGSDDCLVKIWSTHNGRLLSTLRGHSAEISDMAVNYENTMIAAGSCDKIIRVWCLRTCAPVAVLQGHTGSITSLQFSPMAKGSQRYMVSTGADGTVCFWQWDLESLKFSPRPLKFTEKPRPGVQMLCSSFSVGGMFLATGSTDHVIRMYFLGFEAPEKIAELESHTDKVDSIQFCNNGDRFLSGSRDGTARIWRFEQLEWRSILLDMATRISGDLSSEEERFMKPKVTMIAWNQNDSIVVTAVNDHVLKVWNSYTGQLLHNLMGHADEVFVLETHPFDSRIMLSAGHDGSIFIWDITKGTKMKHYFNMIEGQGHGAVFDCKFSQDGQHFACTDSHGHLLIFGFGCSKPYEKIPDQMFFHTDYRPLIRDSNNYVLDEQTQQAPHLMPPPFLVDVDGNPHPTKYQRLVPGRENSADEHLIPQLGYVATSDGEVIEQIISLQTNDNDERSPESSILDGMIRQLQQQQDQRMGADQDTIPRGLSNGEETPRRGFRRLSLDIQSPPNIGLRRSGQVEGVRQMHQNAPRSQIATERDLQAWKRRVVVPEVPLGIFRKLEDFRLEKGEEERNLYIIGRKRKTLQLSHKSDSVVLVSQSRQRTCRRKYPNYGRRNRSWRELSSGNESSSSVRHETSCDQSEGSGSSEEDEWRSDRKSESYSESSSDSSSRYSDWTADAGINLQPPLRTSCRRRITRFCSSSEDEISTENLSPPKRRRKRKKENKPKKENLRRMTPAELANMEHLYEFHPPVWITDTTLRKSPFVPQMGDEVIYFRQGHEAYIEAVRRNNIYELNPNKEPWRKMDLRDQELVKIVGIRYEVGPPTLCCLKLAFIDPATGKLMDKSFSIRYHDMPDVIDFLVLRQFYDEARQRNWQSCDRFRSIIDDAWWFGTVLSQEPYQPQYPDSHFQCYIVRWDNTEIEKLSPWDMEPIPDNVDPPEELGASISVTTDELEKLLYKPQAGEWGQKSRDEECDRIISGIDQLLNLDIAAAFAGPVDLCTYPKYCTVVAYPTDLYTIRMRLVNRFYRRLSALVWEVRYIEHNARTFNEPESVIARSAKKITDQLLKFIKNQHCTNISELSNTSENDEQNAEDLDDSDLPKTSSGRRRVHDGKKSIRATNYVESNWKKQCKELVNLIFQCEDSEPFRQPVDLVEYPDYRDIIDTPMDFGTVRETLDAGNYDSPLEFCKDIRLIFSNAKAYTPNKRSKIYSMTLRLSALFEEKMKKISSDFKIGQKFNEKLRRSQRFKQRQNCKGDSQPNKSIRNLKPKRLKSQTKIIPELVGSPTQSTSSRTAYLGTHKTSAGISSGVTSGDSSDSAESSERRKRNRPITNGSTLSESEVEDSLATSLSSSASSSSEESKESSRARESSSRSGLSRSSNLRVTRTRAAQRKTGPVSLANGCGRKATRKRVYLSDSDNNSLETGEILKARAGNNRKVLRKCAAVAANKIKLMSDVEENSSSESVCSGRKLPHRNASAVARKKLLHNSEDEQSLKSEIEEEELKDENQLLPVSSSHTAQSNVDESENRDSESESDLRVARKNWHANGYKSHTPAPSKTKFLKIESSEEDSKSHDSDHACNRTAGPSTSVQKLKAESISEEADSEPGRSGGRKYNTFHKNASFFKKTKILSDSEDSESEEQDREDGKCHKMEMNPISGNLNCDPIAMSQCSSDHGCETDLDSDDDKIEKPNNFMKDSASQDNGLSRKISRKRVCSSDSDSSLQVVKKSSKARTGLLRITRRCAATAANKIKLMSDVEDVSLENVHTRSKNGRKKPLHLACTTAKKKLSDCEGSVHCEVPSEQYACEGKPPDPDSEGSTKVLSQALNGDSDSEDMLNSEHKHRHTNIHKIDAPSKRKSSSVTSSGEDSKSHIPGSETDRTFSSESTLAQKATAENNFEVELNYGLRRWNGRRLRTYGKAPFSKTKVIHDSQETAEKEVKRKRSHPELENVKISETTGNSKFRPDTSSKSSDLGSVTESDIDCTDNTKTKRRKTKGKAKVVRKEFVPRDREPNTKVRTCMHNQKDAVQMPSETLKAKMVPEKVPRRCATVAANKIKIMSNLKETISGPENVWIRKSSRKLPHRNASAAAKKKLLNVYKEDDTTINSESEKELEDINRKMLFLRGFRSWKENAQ
Text: as §1

BPTF/FALZ = target: T10, BPTF/FALZ (Homo sapiens, UniProt Q12830)
T10 construct: purchased BPS Bioscience; Eurofins (HDAC4, 5, 7-11)
Text: as §1

BRD3 (BD1) = target: T11, BRD3 (BD1) (Homo sapiens, UniProt Q15059)
T11 construct: BRD3 (BD1); purchased BPS Bioscience (contracted assay service)
T11 sequence (Q15059 34-140 limits assumed): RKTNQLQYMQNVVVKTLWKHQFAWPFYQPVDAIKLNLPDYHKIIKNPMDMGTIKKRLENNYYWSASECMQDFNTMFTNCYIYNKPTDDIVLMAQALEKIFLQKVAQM
Text: as §1

CREBBP = target: T12, CREBBP (Homo sapiens, UniProt Q92793)
T12 construct: purchased BPS Bioscience; Eurofins (HDAC4, 5, 7-11)
Text: as §1

BRD4 (BD2) = target: T13, BRD4 (BD2) (Homo sapiens, UniProt O60885)
T13 construct: purchased BPS Bioscience; Eurofins (HDAC4, 5, 7-11)
Text: as §1

BRD3 (BD2) = target: T14, BRD3 (BD2) (Homo sapiens, UniProt Q15059)
T14 construct: purchased BPS Bioscience; Eurofins (HDAC4, 5, 7-11)
T14 sequence (Q15059 306-419 limits assumed): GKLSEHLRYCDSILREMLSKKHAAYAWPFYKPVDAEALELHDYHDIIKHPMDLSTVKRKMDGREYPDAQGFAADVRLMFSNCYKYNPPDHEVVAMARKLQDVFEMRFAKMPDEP
Text: as §1

ATAD2B = target: T15, ATAD2B (Homo sapiens, UniProt Q9ULI0)
T15 construct: purchased BPS Bioscience; Eurofins (HDAC4, 5, 7-11)
Text: as §1

BRD9 = target: T16, BRD9 (Homo sapiens, UniProt Q9H8M2)
T16 construct: purchased BPS Bioscience (contracted assay service)
T16 sequence (Q9H8M2 1-597): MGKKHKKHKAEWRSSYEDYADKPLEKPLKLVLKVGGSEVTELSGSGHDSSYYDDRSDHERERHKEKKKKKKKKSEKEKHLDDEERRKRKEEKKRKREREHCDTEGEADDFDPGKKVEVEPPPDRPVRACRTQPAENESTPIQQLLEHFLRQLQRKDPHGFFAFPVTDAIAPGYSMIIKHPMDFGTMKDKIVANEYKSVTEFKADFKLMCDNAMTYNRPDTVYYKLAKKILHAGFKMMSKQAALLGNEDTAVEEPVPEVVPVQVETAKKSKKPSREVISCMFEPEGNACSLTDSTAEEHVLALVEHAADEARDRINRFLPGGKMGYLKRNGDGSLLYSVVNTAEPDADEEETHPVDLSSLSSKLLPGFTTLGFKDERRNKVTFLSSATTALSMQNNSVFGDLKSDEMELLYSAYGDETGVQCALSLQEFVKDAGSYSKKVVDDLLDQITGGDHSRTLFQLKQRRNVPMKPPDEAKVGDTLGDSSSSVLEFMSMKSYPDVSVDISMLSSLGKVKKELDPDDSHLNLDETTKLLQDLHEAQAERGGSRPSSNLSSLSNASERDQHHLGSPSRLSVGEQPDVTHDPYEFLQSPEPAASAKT
Text: as §1

TAF1L (BD2) = target: T17, TAF1L (BD2) (Homo sapiens, UniProt Q8IZX4)
T17 construct: purchased BPS Bioscience; Eurofins (HDAC4, 5, 7-11)
T17 sequence (Q8IZX4 1523-1654 limits assumed): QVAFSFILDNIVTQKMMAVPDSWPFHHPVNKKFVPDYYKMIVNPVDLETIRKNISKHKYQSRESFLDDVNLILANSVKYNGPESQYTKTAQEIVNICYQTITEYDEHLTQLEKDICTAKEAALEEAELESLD
Text: as §1

BRD2 (BD2) = target: T18, BRD2 (BD2) (Homo sapiens, UniProt P25440)
T18 construct: purchased BPS Bioscience; Eurofins (HDAC4, 5, 7-11)
Text: as §1

SMARCA2A = target: T19, SMARCA2A (Homo sapiens, UniProt P51531)
T19 construct: purchased BPS Bioscience; Eurofins (HDAC4, 5, 7-11)
Text: as §1

BRDT (BD1) = target: T20, BRDT (BD1) (Homo sapiens, UniProt Q58F21)
T20 construct: purchased BPS Bioscience; Eurofins (HDAC4, 5, 7-11)
Text: as §1

BAZ2B = target: T21, BAZ2B (Homo sapiens, UniProt Q9UIF8)
T21 construct: purchased BPS Bioscience; Eurofins (HDAC4, 5, 7-11)
Text: as §1

T1 sequence (Q8IZX4 1395-1654): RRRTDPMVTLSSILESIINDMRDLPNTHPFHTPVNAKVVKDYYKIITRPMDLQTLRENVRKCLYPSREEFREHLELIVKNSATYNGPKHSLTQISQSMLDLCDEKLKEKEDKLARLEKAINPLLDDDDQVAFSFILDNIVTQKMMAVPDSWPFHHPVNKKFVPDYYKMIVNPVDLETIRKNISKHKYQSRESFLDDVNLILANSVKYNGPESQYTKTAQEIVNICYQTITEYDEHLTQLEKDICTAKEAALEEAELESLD

COc1cc2nc(-c3ccc(C)o3)cc(NCC3CCN(c4ncc(C(=O)NO)cn4)CC3)c2cc1OC [CM-444, 2-[4-[[[6,7-dimethoxy-2-(5-methyl-2-furyl)-4-quinolyl]amino]methyl]-1-piperidyl]pyrimidine-5-carbohydroxamic acid]
inhibition at 10 µM (TAF1L (BD1+BD2)): 0%
inhibition at 10 µM (BRD1): 0%
inhibition at 10 µM (BRD4 (BD1+BD2)): 41%
inhibition at 10 µM (CeCR2): 0%
inhibition at 10 µM (BRD2 (BD1+BD2)): 21%
inhibition at 10 µM (ATAD2A): 0%
inhibition at 10 µM (BRDT (BD1+BD2)): 38%
IC50 (BRD2 (BD1)): 30.8 µM
inhibition at 10 µM (BRD2 (BD1)): 71%
IC50 (WDR9): > 50 µM
inhibition at 10 µM (WDR9): 51%
inhibition at 10 µM (BPTF/FALZ): 0%
inhibition at 10 µM (BRD3 (BD1)): 20%
inhibition at 10 µM (CREBBP): 0%
inhibition at 10 µM (BRD4 (BD2)): 0%
inhibition at 10 µM (BRD3 (BD2)): 0%
inhibition at 10 µM (ATAD2B): 0%
IC50 (BRD9): 13 µM
inhibition at 10 µM (BRD9): 69%
inhibition at 10 µM (TAF1L (BD2)): 0%
inhibition at 10 µM (BRD2 (BD2)): 0%
inhibition at 10 µM (SMARCA2A): 0%
inhibition at 10 µM (BRDT (BD1)): 44%
inhibition at 10 µM (BAZ2B): 0%

COc1cc2nc(-c3cc(C)oc3C)cc(NCC3CCN(c4ncc(C(=O)NO)cn4)CC3)c2cc1OC [CM-1758, 2-[4-[[[2-(2,5-dimethyl-3-furyl)-6,7-dimethoxy-4-quinolyl]amino]methyl] -1-piperidyl]pyrimidine-5-carbohydroxamic acid]
inhibition at 10 µM (TAF1L (BD1+BD2)): 0%
inhibition at 10 µM (BRD1): 3%
inhibition at 10 µM (BRD4 (BD1+BD2)): 50%
IC50 (CeCR2): 0.93 µM
inhibition at 10 µM (CeCR2): 72%
inhibition at 10 µM (BRD2 (BD1+BD2)): 29%
inhibition at 10 µM (ATAD2A): 0%
inhibition at 10 µM (BRDT (BD1+BD2)): 17%
inhibition at 10 µM (BRD2 (BD1)): 25%
inhibition at 10 µM (WDR9): 35%
inhibition at 10 µM (BPTF/FALZ): 0%
IC50 (BRD3 (BD1)): > 50 µM
inhibition at 10 µM (BRD3 (BD1)): 60%
inhibition at 10 µM (CREBBP): 6%
inhibition at 10 µM (BRD4 (BD2)): 0%
inhibition at 10 µM (BRD3 (BD2)): 0%
inhibition at 10 µM (ATAD2B): 13%
IC50 (BRD9): 36 µM
inhibition at 10 µM (BRD9): 75%
inhibition at 10 µM (TAF1L (BD2)): 0%
inhibition at 10 µM (BRD2 (BD2)): 34%
inhibition at 10 µM (SMARCA2A): 0%
inhibition at 10 µM (BRDT (BD1)): 23%
inhibition at 10 µM (BAZ2B): 0%
